From patent US11420922B2, “Hydroxylated tropolone inhibitors of nucleotidyl transferases in herpesvirus and Hepatitis B and uses therefor” (Saint Louis University, priority 2015, dated 2022)
“Also recorded” adds a separate entry of the source. Like-named read-outs stand apart in the source and are kept apart here.

Experiments:
HSV-1 [1] = test: Anti-HSV-1 replication assay in Vero cells, titers by plaque assay; assay type: cell-based, herpes simplex virus 1; settings: for log reduction at 5 µM: read-out: HSV-1 Log suppression 5 μM; for log reduction at 50 µM: read-out: HSV-1 Log suppression 50 μM
Procedure: Vero cells were maintained in Dulbecco's modified Eagle's medium (DMEM) containing 3% newborn calf serum, 3% bovine growth serum, 2 mM L-glutamine and 100 IU/mL penicillin and 0.1 mg/mL streptomycin (P/S). HSV-1 #6 and HSV-2 #1 are de-identified clinical isolates from the Saint Louis University Hospital. Stocks were prepared after a single passage in cell culture and were titered by standard plaque assay (Knipe and Spang, 1982). Wild-type HSV-2 used in FIG. 3 was laboratory strain 333. […] Virus stocks were grown and titered on Vero cells (Morrison and Knipe, 1996).
(§1) Compounds to be screened were diluted in PBS supplemented to contain 2% newborn calf serum and 1% glutamine, and added in 100 μL volume to confluent cell monolayers in 24-well cluster plates. Immediately thereafter HSV-1 and HSV-2, diluted in the supplemented PBS medium, were added to the wells in 50 μl volume such that the final concentration of compound was 50 μM and 5 μM and the multiplicity of infection was 0.1. The plates were incubated at 37° C. for 1 hour and then virus-containing inoculum was removed and the wells were washed once in PBS. Compounds, diluted to 50 μM and 5 μM in DMEM supplemented to contain 2% newborn calf serum and 1% each penicillin/streptomycin, were added at 0.5 mL/well. Plates were incubated at 37° C. an additional 23 hr, and then the plates were visually inspected through a phase contrast microscope for cytopathic effect, and for toxic effect. […] The entire contents of each well were collected by scraping. Samples were frozen at −80° C., and then subsequently thawed, sonicated, and infectious virus titer was determined by standard plaque assay on Vero cell monolayers. Because the compounds were dissolved at 10 mM in 100% DMSO, equivalent dilutions of DMSO were added to additional wells as a control for effects of the diluent. Each experiment was repeated once. EC50 values were determined as above except that serial dilutions of the compound to be tested were prepared starting at 50 μM. The inhibitory values were calculated by non-linear curve-fitting in GraphPad Prism.

HSV-2 [2] = test: Anti-HSV-2 replication assay in Vero cells, titers by plaque assay; assay type: cell-based, herpes simplex virus 2; settings: for log reduction at 5 µM / log reduction at 50 µM: Human alphaherpesvirus 2, Vero, 24 h; for log reduction at 5 µM: read-out: HSV-2 Log suppression 5 μM; for log reduction at 50 µM: read-out: HSV-2 Log suppression 50 μM
HSV = test: Anti-HSV SAR summary, HSV type not separated; assay type: cell-based, herpes simplex virus; settings: grouped by activity at 50, 5 and 0.5 μM
Procedure: as §1
A series of over 20 synthetic αHTs were synthesized and tested to both confirm the initial SAR, and to provide leads for further optimization pursuits (FIG. 5). […] Specifically, biphenyl-containing molecules #118 and 115 inhibit HSV replication by up to 4 log10 at 200 nM. The increased potency over close analogs #111 and 113 confirmed the importance of added lipophilicity.

[3] = Quantitative Vero cell toxicity (MTT); assay type: cell-based; settings: African green monkey, Vero cells
Procedure: (§2) Qualitative assessments of cytotoxicity were done visually by inspecting the cells in the primary screening assays. For the quantitative assays, cells were plated in 96-well plates at 1.0×10^4 per well. The next day the compounds were added at 0.78 to 100 μM in a final concentration of 1% (v/v) DMSO, and the cells were incubated for 24 hours under conditions identical to those employed for the viral replication inhibition assays. Mitochondrial toxicity was measured by incubating the cells with 0.25 mg/mL thiazolyl blue tetrazolium bromide (MTT, Sigma Aldrich Chemical Co.), the cultures were incubated for 60 min, metabolites were solubilized in acidic isopropanol, and absorbance was read at 570 nm. CC50 values were calculated by non-linear curve fitting using GraphPad Prism.
Quantitative toxicity measurements were conducted for all compounds that suppressed HSV replication by >2 log10 at 5 μM plus a number of compounds with lesser inhibitory activity for comparison. Toxicity was assessed by […]. Cells were plated in 96-well plates at 1.0×10^4 per well. The next day compound was added in concentrations ranging from 0.78 to 100 μM in a final concentration of 1% (v/v) DMSO. The cells were incubated for 24 h under conditions identical to those employed for the viral replication inhibition assays, and then mitochondrial activity was measured with the MTT assay (Sigma Aldrich) according to the manufacturer's instructions. Percent viability was determined for each compound concentration from the […], and then 50% cytotoxic concentrations (CC50) values were calculated by non-linear curve fitting using GraphPad Prism. Consistent with the subjective assessments of toxicity, all compounds selected for quantitative toxicity assessment had CC50 values≥50 μM under these conditions (Table 1).

[4] = Cytotoxicity reported with the HBV assay (Table 4); assay type: cell-based; settings: human, hepatoma cells; read-out: CC50 (HBV assay table)
Procedure: as §2

HSV-1 [5] = settings: 5 μM or less; cited from earlier work
HSV-2 [6] = settings: 5 μM or less; cited from earlier work
HBV = HBV replication assay in HepDES19 cells; assay type: cell-based; settings: Hepatitis B virus
Procedure: HBV replication assay. Inhibition of HBV replication was measured in HepDES19 cells as previously described (Cai, et al., 2014). Cells were seeded into 6-well plates and incubated in DMEM/F12, 10% fetal bovine serum (FBS), 1% penicillin/streptomycin (P/S) with 1 μg/ml tetracycline. Tetracycline was withdrawn after 24 hours. The test compound was applied to duplicate wells 48 hours later in medium containing a final DMSO concentration of 1%, and medium containing the compound was refreshed daily for the following two days. Cells were harvested and non-encapsidated nucleic acids were digested with micrococcal nuclease (New England Biolabs). HBV DNA was purified from capsids using QIAamp Cador Pathogen Mini Kit (Qiagen) with proteinase K incubation overnight at 37° C. TaqMan PCR was performed for 40 cycles at an annealing temperature of 60° C. Primers and probe (IDT Inc.) for the plus-polarity strand were: 5′[…]3′ (SEQ ID NO: 1); 5′[…]3′ (SEQ ID NO: 2); 5′/56-FAM/[…]/ZEN/[…]/3IABkFQ (SEQ ID NO: 3). Primers and probe for the minus-polarity strand were: 5′[…]3′ (SEQ ID NO: 4); 5′[…]3′ (SEQ ID NO: 5); 5′/56-FAM/[…]/ZEN/[…]/3IABkFQ (SEQ ID NO: 6).

[7] = Mouse liver microsome assay; assay type: in vitro ADME; settings: 1 μM in mouse liver microsomes; for half-life at 1 μM: read-out: t ½; for ER: extraction ratio
Procedure: Microsomal incubations are run at a final P450 concentration of 0.25 μM. The microsomal mixture is composed of 0.1M potassium phosphate containing 3.3 mM MgCl and 1 μM compound (final concentration). The mixture is prewarmed for 5 min at 37° C. To initiate the reaction a 12 mM stock of NAPDH (1.2 mM, final concentration) is added to the warmed microsomal mixture and aliquots are removed at 0, 5, 10, 20 and 30 min. Samples are quenched with ice cold acetonitrile containing internal standard and either 1.8 mM EDTA or EGTA (final concentration). Samples are vortexed and spun down at 3200 rpm for 5 min. The supernant is transferred to 96-deep well plates and run on LC/MS/MS.

[8] = Human alphaherpesvirus 1, Vero, 24 h
[9] = HepDES19 cells, read-out: EC50 (HBV assay)

| Compound | log reduction at 5 µM (HSV-1 [1]; [8]) | log reduction at 5 µM (HSV-2 [2]) | anti-HSV SAR group, in words (HSV) | CC50 at 24 h [3] | CC50 at 24 h [4] | suppression of HSV-1 replication in cell culture, in words (HSV-1 [5]) | suppression of HSV-2 replication in cell culture, in words (HSV-2 [6]) | log reduction at 50 µM (HSV-1 [1]; [8]) | log reduction at 50 µM (HSV-2 [2]) | EC50 (HBV; [9]) | HSV-1 inhibition, fold (HSV-1 [1]; 5 μM) | EC50 (HSV-1 [1]; Human alphaherpesvirus 1, Vero, 24 h, read-out: HSV-1 EC50) | HSV-2 inhibition, fold (HSV-2 [2]; 5 μM) | Non-P450 turn-over [7] | half-life at 1 μM [7] | ER [7] | EC50 (HBV; HepDES19, read-out: EC50 (HBV assay)) |
| --- | --- | --- | --- | --- | --- | --- | --- | --- | --- | --- | --- | --- | --- | --- | --- | --- | --- |
| Cc1cc(O)c(=O)c(O)cc1C(=O)c1ccccc1 [Compound 111] | 4.28 | 3.21 | fully inhibitory at 5 μM | > 50 µM | 31 µM | strongly suppress | strongly suppress | – | – | – | – | – | – | – | – | – | – |
| Cc1cc(O)c(=O)c(O)cc1-c1ccccc1 [Compound 113] | 2.27 | 2.07 | – | > 100 µM | – | – | – | 5.38 | 5.61 | 4.2 µM | – | – | – | – | – | – | – |
| Cc1cc(O)c(=O)c(O)cc1-c1ccc(Br)cc1 [Compound 114] | 4.8 | 3.92 | – | > 100 µM | – | – | – | 4.75 | 5.26 | – | – | – | – | – | – | – | – |
| Cc1cc(O)c(=O)c(O)cc1-c1cccc(Br)c1 [Compound 119] | 5.19 | 5.02 | – | 72.4 µM | 81 µM | – | – | 5.28 | 4.88 | 6.4 µM | – | – | – | – | – | – | – |
| Cc1cc(O)c(=O)c(O)cc1C(=O)C1CCCCC1 [Compound 120] | 4.84 | 5.41 | fully inhibitory at 5 μM | ~50 µM | 24 µM | strongly suppress | strongly suppress | 5.53 | 5.07 | – | – | – | – | – | – | – | – |
| Cc1cc(O)c(=O)c(O)cc1C(=O)C(C)C [Compound 143] | 0.25 | 0 | weakest inhibitors | – | > 100 µM | strongly suppress | strongly suppress | 5.93 | 4.78 | 6 µM | – | – | – | – | – | – | – |
| Cc1cc(O)c(=O)c(O)cc1-c1ccc(C(F)(F)F)cc1 [Compound 145] | 3.96 | 4.05 | – | > 100 µM | – | – | – | 3.97 | 4.33 | – | – | – | – | – | – | – | – |
| Cc1cc(O)c(=O)c(O)cc1-c1cccc2ccccc12 [Compound 146] | 5.68 | 5.66 | highly inhibitory at much lower concentrations; also recorded: fully inhibitory at 0.5 μM | > 100 µM | 12 µM | – | – | 6.2 | 5.29 | 2.3 µM | 478,600 fold | 0.45 µM | 457,100 fold | No | > 2 h | <0.1 | – |
| Cc1cc(O)c(=O)c(O)cc1-c1ccc2ccccc2c1 [Compound 147] | 5.92 | 4.33 | – | 74.8 µM | – | – | – | 5.81 | 4.12 | – | – | – | – | No | > 2 h | <0.1 | – |
| O=c1c(O)ccccc1O [Compound 172] | 3.31 | 1.8 | moderate inhibitors | > 100 µM | > 100 µM | – | – | 4.11 | 4.64 | – | – | – | – | – | – | – | 2.1 µM |
| Cc1cc(O)c(=O)c(O)cc1C(=O)CC1CCCCC1 [Compound 173] | 5.91 | 5.32 | fully inhibitory at 5 μM | > 100 µM | 22 µM | – | – | 5.8 | 5.94 | 6.7 µM | – | – | – | – | – | – | – |
